Experimental findings from patent US12527886B2, “Radiopharmaceuticals and composition for thrombus imaging” (THE ASAN FOUNDATION, priority 2020, dated 2026) are described below.

The data set can be described thus: Stability of Tc-99m labeled compound, labeling purity by HPLC. In kind it is physicochemical. Conditions: 99mTc-labeled, cysteine and VB1, until 4 hours (Table 11). How it is done: 2 mL of Tc-99m was added dropwise to a lyophilized vial including 0.1 mg of GP-104, 15 μg of SnCl2, and 10 μg of cysteine, the vial was allowed to stand at room temperature for 10 minutes, and the reaction was terminated by adjusting pH to 7 using a NaOH solution. Labeling purity was confirmed to be 93.21% by HPLC (analysis conditions: Luna C18 250×4.6 mm, phosphate buffer:acetonitrile (100:0, 0 to 5 minutes; 80:20, 5 to 10 minutes; 80:20, 17 minutes; 100:0, 17.1 minutes). 100:0. 20 min), 1.0 mL/min, UV=280 nm).
In order to confirm the effect of cysteine addition after the reaction, the following experiment was performed: 0.1 mg of GP-104 was dissolved in water for injection, the pH was adjusted to about 3.5 when 10 μL of SnCl2 (1.5 mg/mL) and 2 mL of Tc-99m were added thereto, and the resulting mixture was allowed to stand at room temperature for 10 minutes. The reaction was terminated by adjusting the pH to 7 using a NaOH solution and 10 μL of cysteine (1.0 mg/mL). Labeling purity was confirmed to be 91.4% using HPLC in the same manner as in Example 2-7.
After 0.1 mg of GP-104 was dissolved in water for injection, pH was adjusted to about 3.5 and the resulting solution was allowed to stand at room temperature for 10 minutes when 10 μL of SnCl2 (1.5 mg/mL), 10 μL of cysteine (1.0 mg/mL) and 2 mL of Tc-99m were added thereto, and the reaction was terminated by adjusting the pH to 7 using a NaOH solution. Labeling purity was confirmed to be 94.84% using HPLC in the same manner as in Example 2-7.
HCl and NaOH was additionally added dropwise to the solution of Example 2-8 to perform a stability evaluation by adjusting the final pH of the solution to acidic (pH 5.5) and basic (pH 8.5) conditions, and labeling purity was confirmed using HPLC in the same manner as in Example 2-7.
HCl and NaOH was additionally added dropwise to the solution of Example 2-9 to perform a stability evaluation by adjusting the final pH of the solution to acidic (pH 5.5) and basic (pH 8.5) conditions, and labeling purity was confirmed using HPLC in the same manner as in Example 2-7.
HCl and NaOH was additionally added dropwise to the solution of Example 2-10 to perform a stability evaluation by adjusting the final pH of the solution to acidic (pH 5.5) and basic (pH 8.5) conditions, and labeling purity was confirmed using HPLC in the same manner as in Example 2-7.
0.1 mg of GP-105 was dissolved in water for injection, the pH was adjusted to about 3.5 when 10 μL of SnCl2 (1.5 mg/mL) and 2 mL of Tc-99m were added thereto, and the resulting mixture was allowed to stand at room temperature for 10 minutes. The reaction was terminated by adjusting the pH to 7 using a NaOH solution and 10 μL of cysteine (1.0 mg/mL). Labeling purity was confirmed to be 98.1% using HPLC in the same manner as in Example 2-7.
HCl and NaOH was additionally added dropwise to the solution of Example 2-12 to perform a stability evaluation by adjusting the final pH of the solution to acidic (pH 5.5) and basic (pH 8.5) conditions, and labeling purity was confirmed using HPLC in the same manner as in Example 2-7.
HCl and NaOH was additionally added dropwise to the solution of Example 2-13 to perform a stability evaluation by adjusting the final pH of the solution to acidic (pH 5.5) and basic (pH 8.5) conditions, and labeling purity was confirmed using HPLC in the same manner as in Example 2-7.
HCl and NaOH was additionally added dropwise to the solution of Example 2-14 to perform a stability evaluation by adjusting the final pH of the solution to acidic (pH 5.5) and basic (pH 8.5) conditions, and labeling purity was confirmed using HPLC in the same manner as in Example 2-7.

With `O=C(O)C[C@H](NC(=O)[C@@H]1CCCN(C(=O)CCC2CCNCC2)C1)c1cncc(OCCNC(=O)CN(CC(=O)O)CC(=O)O)c1` [GP-105, 2,2′-((2-((2-((5-((S)-2-carboxy-1-((R)-1-(3-(piperidin-4-yl)propanoyl)piperidine-3-carboxamido)ethyl)pyridin-3-yl)oxy)ethyl)amino)-2-oxoethyl)azanediyl)diacetic acid], the radiochemical purity runs as follows: (acidic conditions) at least 98%; (basic conditions) at least 90%; (pH of 7) at least 94%.
